Data: patent US8765728B2, “[1,5]-diazocin derivatives” (MelliTech, priority 2009, dated 2014)

Tested on: Min6 cell
Assay: Insulin secretion response of beta cell line to formula I compounds (insulin ELISA)
Format: cell-based
Details: rank according to % increase versus control at most effective dose
Method in brief: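 After compound or vehicle exposure, Min6 cells were held 2 h in glucose-free medium and preincubated 30 min at 37° C in glucose-free KRBH (pH 7.4, 0.1% BSA). They were then incubated 30 min at 37° C in KRBH with varying glucose. Secreted insulin and acid-ethanol-extracted intracellular insulin were measured by ELISA.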

Compound | Insulin secretion (Min6 cell) Range 1 to 5
O=C(c1ccccn1)N1CCC(=O)N(C2CC2)Cc2cc(Cl)ccc21 [Compound 131, 8-chloro-5-cyclopropyl-1-picolinoyl-2,3,5,6-tetrahydrobenzo[b][1,5]diazocin-4(1H)-one] | 1 (1: 90-110% of control)
COc1ccc2c(c1)CN(C1CC1)C(=O)CCN2C(=O)c1cc(C)no1 [Compound 141, 5-cyclopropyl-8-methoxy-1-(3-methylisoxazole-5-carbonyl)-2,3,5,6-tetrahydrobenzo[b][1,5]diazocin-4(1H)-one] | 4 (4: 140-170% of control)
COc1ccc2c(c1)CN(C1CC1)C(=O)CCN2C(=O)c1cc(C)nn1C [Compound 99, 5-cyclopropyl-1-(1,3-dimethyl-1H-pyrazole-5-carbonyl)-8-methoxy-2,3,5,6-tetrahydrobenzo[b][1,5]diazocin-4(1H)-one] | 1 (1: 90-110% of control)
O=C1CCN(CC(O)c2ccc(F)c(F)c2)c2ccc(F)cc2CN1C1CC1 (stereo not drawn) [Compound 49, 5-cyclopropyl-1-(2-(3,4-difluorophenyl)-2-hydroxyethyl)-8-fluoro-2,3,5,6-tetrahydrobenzo[b][1,5]diazocin-4(1H)-one] | 5 (5: >170% of control)
COc1cccc(C(=O)CN2CCC(=O)N(C3CC3)Cc3cc(F)ccc32)c1 [Compound 37, 5-cyclopropyl-8-fluoro-1-(2-(3-methoxyphenyl)-2-oxoethyl)-2,3,5,6-tetrahydrobenzo[b][1,5]diazocin-4(1H)-one] | 4 (4: 140-170% of control)
Cc1cc(C(=O)N2CCC(=O)N(C3CC3)Cc3cccnc32)n(C)n1 [Compound 105, 5-cyclopropyl-1-(1,3-dimethyl-1H-pyrazole-5-carbonyl)-2,3,5,6-tetrahydropyrido[2,3-b][1,5]diazocin-4(1H)-one] | 3 (3: 120-140% of control)
COc1ccc2c(c1)CN(C1CC1)C(=O)CCN2C[C@H](O)COc1cccc(F)c1 [Compound 110, (S)-5-cyclopropyl-1-(3-(3-fluorophenoxy)-2-hydroxypropyl)-8-methoxy-2,3,5,6-tetrahydrobenzo[b][1,5]diazocin-4(1H)-one] | 1 (1: 90-110% of control)
O=C1CCN(CC(O)c2ccccc2)c2ccc(F)cc2CN1C1CC1 (stereo not drawn) [Compound 61, 5-cyclopropyl-8-fluoro-1-(2-hydroxy-2-phenylethyl)-2,3,5,6-tetrahydrobenzo[b][1,5]diazocin-4(1H)-one] | 3 (3: 120-140% of control)
O=C1CCNc2ccc(F)cc2CN1C1CC1 [Compound 8, 5-cyclopropyl-8-fluoro-2,3,5,6-tetrahydrobenzo[b][1,5]diazocin-4(1H)-one] | 3 (3: 120-140% of control)
COc1ccc2c(c1OC(F)F)CN(C1CC1)C(=O)CCN2 [Compound 127, 5-cyclopropyl-7-(difluoromethoxy)-8-methoxy-2,3,5,6-tetrahydrobenzo[b][1,5]diazocin-4(1H)-one] | 1 (1: 90-110% of control)
5-[3-(allyloxy)-2-hydroxypropyl]-9-ethyl-6,7,9,10-tetrahydro[1,3]dioxolo[4,5-i][1,5]benzodiazocin-8(5H)-one [Compound 164] | 1 (1: 90-110% of control)
O=C(CN1CCC(=O)N(C2CC2)Cc2cc(F)ccc21)c1ccc(F)cc1 [Compound 40, 5-cyclopropyl-8-fluoro-1-(2-(4-fluorophenyl)-2-oxoethyl)-2,3,5,6-tetrahydrobenzo[b][1,5]diazocin-4(1H)-one] | 3 (3: 120-140% of control)
O=C1CCN(C[C@@H](O)COCc2ccccc2)c2ccc(Cl)cc2CN1C1CC1 [Compound 79, (R)-1-(3-(benzyloxy)-2-hydroxypropyl)-8-chloro-5-cyclopropyl-2,3,5,6-tetrahydrobenzo[b][1,5]diazocin-4(1H)-one] | 1 (1: 90-110% of control)
CCC#CCN1Cc2ccccc2N(C(=O)c2ccno2)CCC1=O [Compound 158, 1-(isoxazole-5-carbonyl)-5-(pent-2-ynyl)-2,3,5,6-tetrahydrobenzo[b][1,5]diazocin-4(1H)-one] | 1 (1: 90-110% of control)
O=C(c1cnccn1)N1CCC(=O)N(C2CC2)Cc2cccnc21 [Compound 107, 5-cyclopropyl-1-(pyrazine-2-carbonyl)-2,3,5,6-tetrahydropyrido[2,3-b][1,5]diazocin-4(1H)-one] | 2 (2: 110-120% of control)
Cc1noc(C)c1C(=O)N1CCC(=O)N(C2CC2)Cc2cccnc21 [Compound 106, 5-cyclopropyl-1-(3,5-dimethylisoxazole-4-carbonyl)-2,3,5,6-tetrahydropyrido[2,3-b][1,5]diazocin-4(1H)-one] | 1 (1: 90-110% of control)
CCN1Cc2cc(F)ccc2N(CC(O)C(C)(C)C)CCC1=O (stereo not drawn) [Compound 166, 5-ethyl-8-fluoro-1-(2-hydroxy-3,3-dimethylbutyl)-2,3,5,6-tetrahydrobenzo[b][1,5]diazocin-4(1H)-one] | 1 (1: 90-110% of control)

Compound | Insulin secretion (Min6 cell) Range 1 to 5
COc1ccc2c(c1)CN(C1CC1)C(=O)CCN2C(=O)c1cnccn1 [Compound 101, 5-cyclopropyl-8-methoxy-1-(pyrazine-2-carbonyl)-2,3,5,6-tetrahydrobenzo[b][1,5]diazocin-4(1H)-one] | 2 (2: 110-120% of control)
O=C(c1ccc(F)cc1)N1CCC(=O)N(C2CC2)Cc2cc(F)ccc21 [Compound 69, 5-cyclopropyl-8-fluoro-1-(4-fluorobenzoyl)-2,3,5,6-tetrahydrobenzo[b][1,5]diazocin-4(1H)-one] | 1 (1: 90-110% of control)
CS(=O)(=O)c1ccc(OC[C@H](O)CN2CCC(=O)N(C3CC3)Cc3cc(F)ccc32)cc1 [Compound 136, (R)-5-cyclopropyl-8-fluoro-1-(2-hydroxy-3-(4-(methylsulfonyl)phenoxy)propyl)-2,3,5,6-tetrahydrobenzo[b][1,5]diazocin-4(1H)-one] | 1 (1: 90-110% of control)
O=C1CCN(C(=O)c2cccnc2)c2ncccc2CN1CC1CC1 [Compound 153, 5-(cyclopropylmethyl)-1-nicotinoyl-2,3,5,6-tetrahydropyrido[2,3-b][1,5]diazocin-4(1H)-one] | 3 (3: 120-140% of control)
COc1ccc2c(c1)CN(C1CC1)C(=O)CCN2C[C@@H](O)COc1cccc(F)c1 [Compound 109, (R)-5-cyclopropyl-1-(3-(3-fluorophenoxy)-2-hydroxypropyl)-8-methoxy-2,3,5,6-tetrahydrobenzo[b][1,5]diazocin-4(1H)-one] | 3 (3: 120-140% of control)
COc1ccc2c(c1)CN(C1CC1)C(=O)CCN2CC(O)c1cc(OC)ccc1OC (stereo not drawn) [Compound 25, 5-cyclopropyl-1-(2-(2,5-dimethoxyphenyl)-2-hydroxyethyl)-8-methoxy-2,3,5,6-tetrahydrobenzo[b][1,5]diazocin-4(1H)-one] | 2 (2: 110-120% of control)
O=C(c1ccno1)N1CCC(=O)N(C2CC2)Cc2cc(OC(F)F)ccc21 [Compound 111, 5-cyclopropyl-8-(difluoromethoxy)-1-(isoxazole-5-carbonyl)-2,3,5,6-tetrahydrobenzo[b][1,5]diazocin-4(1H)-one] | 1 (1: 90-110% of control)
COc1ccc(C(=O)CN2CCC(=O)N(C3CC3)Cc3cc(OC)ccc32)cc1 [Compound 21, 5-cyclopropyl-8-methoxy-1-(2-(4-methoxyphenyl)-2-oxoethyl)-2,3,5,6-tetrahydrobenzo[b][1,5]diazocin-4(1H)-one] | 2 (2: 110-120% of control)
COc1ccc2c(c1)CN(C1CC1)C(=O)CCN2C(=O)C1CCC1 [Compound 160, 1-(cyclobutanecarbonyl)-5-cyclopropyl-8-methoxy-2,3,5,6-tetrahydrobenzo[b][1,5]diazocin-4(1H)-one] | 1 (1: 90-110% of control)
O=C1CCN(C[C@H](O)COCc2ccccc2)c2ccc(F)cc2CN1C1CC1 [Compound 66, (S)-1-(3-(benzyloxy)-2-hydroxypropyl)-5-cyclopropyl-8-fluoro-2,3,5,6-tetrahydrobenzo[b][1,5]diazocin-4(1H)-one] | 1 (1: 90-110% of control)
COc1ccc2c(c1)CNC(=O)CCN2 [Compound 54, 8-methoxy-2,3,5,6-tetrahydrobenzo[b][1,5]diazocin-4(1H)-one] | 1 (1: 90-110% of control)
COc1ccc2c(c1)CN(C1CC1)C(=O)CCN2CC(=O)c1ccc(Cl)cc1 [Compound 14, 1-(2-(4-chlorophenyl)-2-oxoethyl)-5-cyclopropyl-8-methoxy-2,3,5,6-tetrahydrobenzo[b][1,5]diazocin-4(1H)-one] | 3 (3: 120-140% of control)
COc1ccc(OC)c(C(O)CN2CCC(=O)N(C3CC3)Cc3cc(F)ccc32)c1 (stereo not drawn) [Compound 45, 5-cyclopropyl-1-(2-(2,5-dimethoxyphenyl)-2-hydroxyethyl)-8-fluoro-2,3,5,6-tetrahydrobenzo[b][1,5]diazocin-4(1H)-one] | 1 (1: 90-110% of control)
COc1ccc(OC)c(C(=O)CN2CCC(=O)N(C3CC3)Cc3cc(F)ccc32)c1 [Compound 39, 5-cyclopropyl-1-(2-(2,5-dimethoxyphenyl)-2-oxoethyl)-8-fluoro-2,3,5,6-tetrahydrobenzo[b][1,5]diazocin-4(1H)-one] | 3 (3: 120-140% of control)
COCC(=O)N1CCC(=O)N(C2CC2)Cc2cc(F)ccc21 [Compound 121, 5-cyclopropyl-8-fluoro-1-(2-methoxyacetyl)-2,3,5,6-tetrahydrobenzo[b][1,5]diazocin-4(1H)-one] | 1 (1: 90-110% of control)
O=C1CCNc2ncccc2CN1C1CC1 [Compound 9, 5-cyclopropyl-2,3,5,6-tetrahydropyrido[2,3-b][1,5]diazocin-4(1H)-one] | 2 (2: 110-120% of control)
